# Results as given in publication PMC12562276, “Effects of Intramuscular Vasopressin on Pharmacokinetics and Pharmacodynamics in Healthy Neonatal Piglets: A Dose–Response Study” (Children, 2025).
# Like-named read-outs stand apart in the source and are kept apart here.
# Legend:
# [1] = Plasma vasopressin concentrations and pharmacokinetics after IV or IM vasopressin; assay type: in vivo, neonatal piglets; conditions: for level at 1 min / level at 5 min / level at 10 min / AUC(0-t): pig, plasma, n = 5/group, median (IQR); for level at 1 min: 1 min after administration; for level at 1 min / level at 5 min / level at 10 min: arterial blood, read-out: Plasma vasopressin concentration; for level at 5 min: 5 min after administration; for level at 10 min: 10 min after administration; for AUC(0-t): neonatal piglets, read-out: Area under the curve from baseline to 10 min (AUC0–10) (converted)
# Description: (§1) Following surgical instrumentation and stabilization, a consecutively numbered, sealed brown envelope containing the group allocation was opened (Figure 1). Piglets were randomized into three groups: 0.4 IU/kg IV vasopressin 4 IU/kg IM vasopressin, or 8 IU/kg IM vasopressin. Piglets that were randomized to “IM” were administered one dose intramuscularly in the left inner thigh muscle while piglets randomized to “IV” were administered one dose via the femoral venous catheter followed with a 3 mL normal saline bolus. Arterial blood was collected before drug administration (baseline = time point “0 min”), 1, 2, 3, 4, 5, and 10 min after drug administration. Following final collection of blood, piglets were euthanized with an intravenous overdose of sodium pentobarbital and autopsies of IM injection sites were conducted to assess local tissue damage […].
# Demographics of study piglets were recorded. Transonic flow probes, heart rate, and pressure transducer outputs, and Millar catheter were digitized and recorded with LabChart® 8.1.30, programming software (ADInstruments, Houston, TX, USA). Plasma vasopressin concentrations and pharmacokinetic parameters were quantified and analyzed as previously described. Reported plasma vasopressin concentrations only represent exogenous arginine vasopressin. Since pigs produce lysine vasopressin, endogenous vasopressin concentrations could not be quantified.
# The data are presented as mean (standard deviation—SD) for normally distributed continuous variables and median (interquartile range—IQR) when the distribution was skewed. The data was tested for normality (Shapiro–Wilk and Kolmogorov–Smirnov test) and compared using either Student’s t-test (data normally distributed), Rank Sum if data were skewed, one- and two-way ANOVA with Dunnett post-test, or Fisher’s exact test for categorical variables. Both Hedges’ g and Cliff’s delta (δ) were reported as standardized measures of effect size as appropriate for parametric and non-parametric data, respectively. Pearson or Spearman’s correlations were reported for parametric or non-parametric data, respectively. p-values are 2-sided and p < 0.05 was considered statistically significant. Statistical analyses were performed with SigmaPlot (Systat Software Inc., San Jose, CA, USA) and R version 4.3.2.
# healthy neonatal piglets [2] = experiment: Hemodynamic and cardiac function parameters after IV or IM vasopressin; assay type: in vivo; conditions: for Changes in hemodynamic parameters: n = 5
# Description: Piglets were instrumented as previously described with modifications. Following induction of anesthesia using isoflurane, piglets underwent a tracheostomy for intubation. Pressure-controlled ventilation (Sechrist Infant Ventilator Model IV-100; Sechrist Industries, Anaheim, CA, USA) was commenced at a respiratory rate of 16–20 breaths/min and pressure of 20/5 cmH2O. Oxygen saturation was maintained within 90–100%, while glucose was provided via an IV infusion of 5% dextrose at 10 mL/kg/hr. IV propofol (5–10 mg/kg/h) and morphine (0.1 mg/kg/h) were provided to maintain anaesthesia, and additional IV doses of propofol (1–2 mg/kg) and morphine (0.05–0.1 mg/kg) were administered as needed (i.e., to maintain adequate sedation/pain medication as determined by movement/pain response). Piglets’ normothermic body temperature of 38.5–39.5 °C was maintained with a heating pad and overhead warmer.
# 5-French Argyle® (Klein-Baker Medical Inc. San Antonio, TX, USA) double-lumen and single-lumen catheters were inserted via the right femoral vein and artery, respectively. The femoral venous catheter was used for administration of fluids and medications and the arterial catheter for continuous arterial blood pressure monitoring in addition to arterial blood gas measurements. A real-time ultrasonic flow probe (2 mm; Transonic Systems Inc., Ithica, NY, USA) encircled the right common carotid artery to measure cerebral blood flow. A Millar® catheter (MPVS Ultra1, ADInstruments, Houston, TX, USA) was inserted into the left ventricle via the left common carotid artery for continuous measurement of stroke volume, ejection fraction, end-diastolic and -systolic volumes, left ventricular pressure, and left ventricular contractile function (dP/dtmax, dP/dtmin).
# Following surgical instrumentation, piglets were placed in the supine position and allowed to recover from surgical instrumentation until baseline hemodynamic measures were stable (minimum one hour). Ventilator rate was adjusted to maintain the partial arterial CO2 between 35–45 mmHg, as determined by periodic arterial blood gas analysis. A Hewlett Packard 78833B monitor (Hewlett Packard Co., Palo Alto, CA, USA) was used for the continuous measurement of heart rate, mean systemic arterial pressure (MAP), systemic systolic and diastolic arterial pressure, and percutaneous oxygen saturation throughout the experiment.
# Cerebral oxygenation (crSO2) was measured using the Invos^TM Cerebral/Somatic Oximeter Monitor (Invos 5100, Somanetics Corp., Troy, MI, USA), which calculates crSO2 and expresses values as the percentage of oxygenated haemoglobin (oxygenated haemoglobin/total haemoglobin). The sensors were placed on the right forehead of the piglet and secured with wrap and tape. A slim cap provided light shielding. Regional oxygen saturation values were recorded every second at a sample rate of […].
# as §1
# Demographics of study piglets were recorded. […]
# healthy neonatal piglets [3] = experiment: Autopsy of IM injection sites for local tissue damage; assay type: in vivo; conditions: autopsies post-euthanasia; IM 4 or 8 IU/kg, left inner thigh muscle
# Description: as §1
# dogs = conditions: IV vasopressin, cited from earlier work
# Text: In the current study, we determined the optimal IM vasopressin dose to be 8 IU/kg, as there were significant changes in hemodynamics and left ventricular contractile function following its administration, while there were little to no hemodynamic changes following 4 IU/kg IM vasopressin administration. […] Even if IV access can be achieved before two minutes, IV concentra ...
# [4] = tested on: isolated working rat heart; conditions: during normoxia (not during hypoxia); cited from earlier work
# Text: Through its vasoconstrictor effects, vasopressin increases SVR, thereby increasing arterial blood pressure. […] In an anesthetized open-chest dog model, Nakano administered various doses of vasopressin and reported a dose-related relationship between increasing doses and r ...
# [5] = 0.4 IU/kg IV, anesthetized piglets
# [6] = 8 IU/kg IM, anesthetized piglets
smiles,measurement,setting,value
"NC(=O)CC[C@@H]1NC(=O)[C@H](Cc2ccccc2)NC(=O)[C@H](Cc2ccc(O)cc2)NC(=O)[C@@H](N)CSSC[C@@H](C(=O)N2CCC[C@H]2C(=O)N[C@@H](CCCN=C(N)N)C(=O)NCC(N)=O)NC(=O)[C@H](CC(N)=O)NC1=O [vasopressin, arginine vasopressin]",Plasma concentrations compared with IV vasopressin,"[1]; 4 IU/kg IM vs 0.4 IU/kg IV, p < 0.001",significantly lower
same,Plasma concentrations compared with IV vasopressin,"[1]; 8 IU/kg IM, two minutes after administration",comparable to IV vasopressin
same,level at 1 min,[1]; [5],2.2 ng/mL
same,level at 5 min,[1]; [5],1.74 ng/mL
same,level at 10 min,[1]; [5],1.34 ng/mL
same,AUC(0-t),[1]; 0.4 IU/kg IV,0.266 ng·h/mL
same,AUC(0-t),[1]; 4 IU/kg IM,0.155 ng·h/mL
same,level at 1 min,"[1]; 8 IU/kg IM, anesthetized piglets 1–3 days old, exogenous arginine vasopressin only",0.39 ng/mL
same,level at 5 min,[1]; [6],2.64 ng/mL
same,level at 10 min,[1]; [6],2.83 ng/mL
same,AUC(0-t),[1]; 8 IU/kg IM,0.339 ng·h/mL
same,Brain oxygen saturation compared to baseline,healthy neonatal piglets [2]; 0.4 IU/kg IV,Significantly lower
same,dP/dtmin,healthy neonatal piglets [2]; 0.4 IU/kg IV,no significant changes
same,"Stroke volume, cardiac output and ejection fraction","healthy neonatal piglets [2]; 0.4 IU/kg IV, 1–3 min after administration",significantly lower
same,Stroke volume and cardiac output,"healthy neonatal piglets [2]; 0.4 IU/kg IV, one minute after administration",significantly lower
same,Carotid blood flow compared with 8 IU/kg IM,"healthy neonatal piglets [2]; 0.4 IU/kg IV, throughout the experimental period, p = 0.032",much lower
same,Changes in hemodynamic parameters,healthy neonatal piglets [2]; 4 IU/kg IM,failed to produce significant changes
same,dP/dtmax (left ventricular contractile function),healthy neonatal piglets [2]; 8 IU/kg IM,significantly reduced
same,dP/dtmin,healthy neonatal piglets [2]; 8 IU/kg IM,no significant changes
same,Changes in hemodynamic parameters,healthy neonatal piglets [2]; 8 IU/kg IM,induced significant hemodynamic changes
same,"MAP, systolic and diastolic pressure","healthy neonatal piglets [2]; 8 IU/kg IM, vs baseline",significant increases
same,Local tissue damage at the IM injection sites,healthy neonatal piglets [3],did not reveal any significant local tissue damage
same,Decrease in cardiac output,dogs; baroreceptor-denervated dogs,−22.8 (3.0) mL/kg min
same,Decrease in heart rate,dogs; baroreceptor-denervated dogs,−10 (5) beats/minute
same,Decrease in cardiac output,dogs; healthy dogs,−39.2 (3.8) mL/kg min
same,Decrease in heart rate,dogs; healthy dogs,−22 (4) beats/minute
same,dP/dtmax,[4],significantly decreased
